This is an account of results in US20150104806A1, “Parkinson's Disease Biomarker” (University of Dundee, priority 2012, published 2015).

The subject of assay [1] is human PINK1. The assay can be described thus: Parkin Ser65 phosphorylation in Flp-In T-Rex HEK293 cells expressing PINK1-FLAG after CCCP stimulation. It counts as cell-based. As for the experimental part: (§1) Flp-In T-Rex stable cell lines were cultured using DMEM (Dulbecco's modified Eagle's medium) supplemented with 10% FBS (Fetal Bovine Serum), 2 mM L-Glutamine, 1× Pen/Strep, 15 μg/ml of Blasticidin and 100 μg/ml of Hygromycin. Cell transfections of HA-parkin or untagged parkin were performed using the polyethyleneimine (PEI) method (Reed et al, 2006). Cultures were induced to express protein by addition of 0.1 μg/ml of Doxycycline in the medium for 24 hours. To uncouple mitochondria, cells were treated with 10 μM CCCP (Sigma) dissolved in DMSO for the indicated times. An equivalent volume of DMSO was used as a control.
Cells were lysed and fractionated by the indicated buffer and methods: Whole cell lysis using buffer: 50 mM Tris/HCl (pH 7.4), 1 mM EGTA, 1 mM EDTA, 1%(w/v) 1 mM sodium orthovanadate, 10 mM sodium β-glycerophosphate, 50 mM NaF, 5 mM sodium pyrophosphate, 0.27M sucrose, 1 mM benzamidine and 2mMPMSF and 1%(v/v) Triton X-100. Lysates were clarified by centrifugation at 13,000 rpm for 10 min at 4° C. and the supernatant was collected. […] Protein concentration was determined using the Bradford method (Thermo Scientific) with BSA as the standard. […]

In assay [2] the test system is human PINK1. The experiment in a line: PINK1 stabilisation, band-shift and Thr257 autophosphorylation in mitochondrial/cytoplasmic extracts of CCCP-treated Flp-In T-Rex HEK293 cells. The format is cell-based. As for the experimental part: as §1
Cells were lysed and fractionated by the indicated buffer and methods: Whole cell lysis using buffer: 50 mM Tris/HCl (pH 7.4), 1 mM EGTA, 1 mM EDTA, 1%(w/v) 1 mM sodium orthovanadate, 10 mM sodium β-glycerophosphate, 50 mM NaF, 5 mM sodium pyrophosphate, 0.27M sucrose, 1 mM benzamidine and 2mMPMSF and 1%(v/v) Triton X-100. Lysates were clarified by centrifugation at 13,000 rpm for 10 min at 4° C. and the supernatant was collected. Mitochondrial fractionation: cells were lysed in buffer containing 250 mM sucrose, 20 mM HEPES, 3 mM EDTA, 1%(w/v) 1 mM sodium orthovanadate, 10 mM sodium β-glycerophosphate, 50 mM NaF, 5 mM sodium pyrophosphate, pH 7.5 and protease inhibitor cocktail (Roche) at 4° C. Cells were disrupted using a glass hand held homogeniser (20 passes) and the lysate was clarified by centrifuging for 10 min at 800 g at 4° C. The supernatant was further centrifuged at 16,600 g for 10 min. The resultant supernatant served as the cytosolic fraction. The pellet containing the mitochondrial fraction was resuspended in buffer containing 1% Triton X-100 and centrifuged at 13,000 rpm for 10 min. This supernatant contained solubilized mitochondrial proteins. All lysates were snap-frozen at −80° C. until use. Protein concentration was determined using the Bradford method (Thermo Scientific) with BSA as the standard.
Immunoprecipitation of recombinant PINK1-FLAG was undertaken by standard methods with anti-FLAG agarose beads (Sigma); of HA-parkin with anti-HA agarose beads (Sigma); and of untagged parkin with anti-parkin antibody (S966C) covalently conjugated to protein G-Sepharose. Immunoprecipitates, as well as cell lysates in SDS sample buffer were subjected to SDS-PAGE and transferred to PVDF membranes. For immunoblotting, membranes were incubated for 60 mins with 1% TBST containing either 5% (wt/vol) skimmed milk powder (for total antibodies) or 5% (wt/vol) BSA (for phospho-specific antibodies). The antibodies were then incubated in the same buffer overnight at 4° C. with the indicated primary antibodies. Sheep total and phospho-specific antibodies were used at a concentration of 1 μg/ml, whereas commercial antibodies were diluted 1000-fold. The incubation with phospho-specific sheep antibodies was performed with the addition of 10 μg/ml of the dephosphopeptide antigen used to raise the antibody. Blots were washed with 0.1% TBST and incubated with secondary HRP-conjugated antibodies in 5% skimmed milk for 60 mins. After repeated washes, the signal was detected with the enhanced chemiluminescence and the X-ray films were processed in a Konica Minolta Medical SRX-101 film processor.
10 mg of mitochondrial extract from Flp-In T-Rex HEK 293 cell lines stably PINK1-FLAG were subjected to immunoprecipitation with anti-FLAG-agarose and then eluted in LDS sample buffer. […]

Assay [3] deals with human PINK1. The assay can be described thus: Immunoprecipitation kinase assay of mitochondrial PINK1-FLAG from CCCP-treated HEK293 cells with GST-parkin Ubl (1-108) substrate. The format is cell-based. As for the experimental part: (§2) In assays utilising E. coli expressed wild-type or kinase dead (D359A) MBP-TcPINK1, reactions were set up in a volume of 40 μl, with substrates at 1 μg and kinase at 0.5 μg in 50mMTris-HCl (pH 7.5), 0.1 mM EGTA, 10 mM MgCl2, 2 mM dithiothreitol (DTT) and 0.1 mM [γ-^32P] ATP (approximately 500 cpm/pmol). Assays were incubated at 30° C. with shaking at 1200 rpm and terminated after the indicated time by addition of SDS sample buffer. In mammalian HEK293 immunoprecipitation kinase assays, C-terminal-FLAG tagged wild-type or kinase dead (D384A) PINK1 was immunoprecipitated from 5 mg of mitochondrial enriched extracts using anti-FLAG agarose beads and activity measured in a reaction volume of 40 μl consisting of 50 mM Tris-HCl (pH 7.5), 0.1 mM EGTA, 10 mM MgCl2, 2 mM DTT, 0.1 mM [γ-^32P] ATP (2000cpm/pmol) and 5 μg of indicated substrate. Assays were incubated at 30° C. with shaking at 1200 rpm and terminated after 30 min by addition of SDS sample buffer. For all assays, reaction mixtures were resolved by SDS-PAGE. Proteins were detected by Coomassie staining and gels were imaged using an Epson scanner and dried completely using a gel dryer (Bio-Rad). Incorporation of [γ-32P] ATP into substrates was analysed by autoradiography using Amersham Hyper-Film ECL.

Assay [4] has as its target T1, PINK1 (Homo sapiens, UniProt Q9BXM7).
T1 construct: expressed in transfected cells; host or cells: Flp-In T-Rex HEK293; anti-FLAG immunoprecipitate of mitochondrial enriched extract
The experiment in a line: Lambda phosphatase assay of immunoprecipitated PINK1 followed by in vitro kinase assay. It counts as biochemical. To be noted: 50 mM EDTA with 1000U lambda phosphatase. As for the experimental part:
Wild-type PINK1 was incubated with or without 1000U of Lambda phosphatase (NEB) in a reaction volume of 40 μl consisting of 50 mM Tris pH 7.5, 1 mM MnCl2 and 2 mM DTT. In addition wild-type PINK1 was treated with 1000U of lambda phosphatase in the presence of 50 mM EDTA. Assays were incubated at 30° C. for 30 min with shaking at 1200 rpm. The beads were washed three times in 50 mM Tris pH7.5, 0.1 mM EGTA and then utilized in an in vitro kinase assay with GST-parkin UBL (1-108) as the substrate. Samples were further analyzed as described above.

Assay [5] deals with T2, TcPINK1 (Tribolium castaneum, UniProt D6WMX4).
T2 construct: full-length MBP-fusion of wild type TcPINK1 (1-570); made in house; host or cells: E. coli BL21 Codon+
T2 sequence (D6WMX4 1-570): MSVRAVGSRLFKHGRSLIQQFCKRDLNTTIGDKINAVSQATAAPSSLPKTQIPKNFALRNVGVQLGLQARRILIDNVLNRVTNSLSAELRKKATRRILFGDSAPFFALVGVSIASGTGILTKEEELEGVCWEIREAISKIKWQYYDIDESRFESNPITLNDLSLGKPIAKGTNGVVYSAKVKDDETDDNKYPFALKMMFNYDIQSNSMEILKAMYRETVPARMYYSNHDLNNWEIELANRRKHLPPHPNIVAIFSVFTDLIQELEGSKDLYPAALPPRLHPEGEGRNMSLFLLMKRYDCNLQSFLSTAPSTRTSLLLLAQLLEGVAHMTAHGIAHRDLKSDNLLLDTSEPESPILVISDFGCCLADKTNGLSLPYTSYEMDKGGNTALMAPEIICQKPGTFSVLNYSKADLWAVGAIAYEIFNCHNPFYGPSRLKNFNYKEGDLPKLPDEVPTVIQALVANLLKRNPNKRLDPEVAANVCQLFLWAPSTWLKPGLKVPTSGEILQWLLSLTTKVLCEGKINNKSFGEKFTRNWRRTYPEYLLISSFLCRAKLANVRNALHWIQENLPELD
The experiment in a line: In vitro phosphorylation of substrates by TcPINK1. To be noted: time course, GST-parkin, [γ-32P] ATP. It counts as biochemical, insect. As for the experimental part: as §2

T1 sequence (Q9BXM7 whole entry): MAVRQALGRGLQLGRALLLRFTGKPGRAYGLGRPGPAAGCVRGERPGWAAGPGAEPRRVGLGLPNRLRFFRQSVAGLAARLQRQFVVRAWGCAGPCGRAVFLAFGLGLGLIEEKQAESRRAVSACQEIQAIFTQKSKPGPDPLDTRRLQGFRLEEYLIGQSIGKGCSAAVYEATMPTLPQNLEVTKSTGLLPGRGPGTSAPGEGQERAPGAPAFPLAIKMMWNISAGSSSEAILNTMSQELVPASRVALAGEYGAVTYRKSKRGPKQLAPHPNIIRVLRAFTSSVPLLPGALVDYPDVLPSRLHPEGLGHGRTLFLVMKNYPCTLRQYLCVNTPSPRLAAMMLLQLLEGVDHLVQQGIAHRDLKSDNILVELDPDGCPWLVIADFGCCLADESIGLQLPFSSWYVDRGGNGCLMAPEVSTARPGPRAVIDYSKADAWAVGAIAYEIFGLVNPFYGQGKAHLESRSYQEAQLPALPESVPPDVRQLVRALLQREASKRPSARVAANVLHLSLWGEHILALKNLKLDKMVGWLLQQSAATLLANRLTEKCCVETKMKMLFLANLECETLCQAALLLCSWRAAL

On to `N#CC(C#N)=NNc1cccc(Cl)c1` [CCCP, carbonyl cyanide m-chlorophenyl hydrazone], for which the “time at which parkin Ser65 phosphorylation occurs” value in assay [1] (10 μM CCCP time course, phospho-Ser65 antibody) is 5 min. For the same molecule, the “parkin phosphorylation at Ser65” value in assay [1] (10 μM CCCP, 3 hours, HEK293 cells expressing human wild-type PINK1, phospho-specific antibody) is listed as “induced”. For the same molecule, the “levels of full-length PINK1 associated with the mitochondria” value in assay [2] (3 hour CCCP treatment) is “marked increase”. In addition, the “phosphorylation of PINK1 at Thr257” value in assay [2] (CCCP 3 hours, wild type but not kinase-inactive PINK1, phosphospecific Thr257 antibody) is “markedly stimulated”. The “time to loss of the cleaved form of PINK1 in the cytosol” value in assay [2] (CCCP time course, cytoplasmic extracts) is at most 5 min. Besides, the “time to significant stabilisation of full-length PINK1 at the mitochondria” value in assay [2] (CCCP time course, mitochondrial extracts) is at most 5 min. The “time to maximal stabilisation of full-length PINK1 at the mitochondria” value in assay [2] (CCCP time course, mitochondrial extracts, sustained for up to 3 hours) is on record as at most 40 min. In assay [3] (CCCP time course), the “time of PINK1 activation (immunoprecipitated mitochondrial PINK1 phosphorylating parkin in vitro)” value is listed as “around 40 mins” and the “time of maximal PINK1 activation (immunoprecipitated mitochondrial PINK1 phosphorylating parkin in vitro)” value worked out at 3 h. For the same molecule, in assay [3] (PINK1 isolated from CCCP-treated vs non-treated cells), the “activation of human PINK1 (ability to phosphorylate parkin Ubl domain at Ser65 in vitro)” value is listed as “inducing the activation”.

For `O=C(O)CN(CCN(CC(=O)O)CC(=O)O)CC(=O)O` [EDTA], the “effect on lambda phosphatase-induced dephosphorylation of Thr257 and loss of ability of PINK1 to phosphorylate parkin” value in assay [4] is given as “prevented”.

B1: parkin: human parkin protein expressed in E. coli, substrate of TcPINK1 (protein, UniProt O60260 1-465, looked up)
E3 ubiquitin-protein ligase …: MIVFVRFNSSHGFPVEVDSDTSIFQLKEVVAKRQGVPADQLRVIFAGKELRNDWTVQNCDLDQQSIVHIVQRPWRKGQEMNATGGDDPRNAAGGCEREPQSLTRVDLSSSVLPGDSVGLAVILHTDSRKDSPPAGSPAGRSIYNSFYVYCKGPCQRVQPGKLRVQCSTCRQATLTLTQGPSCWDDVLIPNRMSGECQSPHCPGTSAEFFFKCGAHPTSDKETSVALHLIATNSRNITCITCTDVRSPVLVFQCNSRHVICLDCFHLYCVTRLNDRQFVHDPQLGYSLPCVAGCPNSLIKELHHFRILGEEQYNRYQQYGAEECVLQMGGVLCPRPGCGAGLLPEPDQRKVTCEGGNGLGCGFAFCRECKEAYHEGECSAVFEASGTTTQAYRVDERAAEQARWEAASKETIKKTTKPCPRCHVPVEKNGGCMHMKCPQPQCRLEWCWNCGCEWNRVCMGDHWFDV
modifications: GST tag
notes: human parkin protein expressed in E. coli, substrate of TcPINK1
For the molecule B1, in assay [5], the “maximal stoichiometry of phosphorylation by TcPINK1” value is reported as −0.25 moles of 32P-phosphate per mol.
